Reference: PubChem BioAssay AID330 (DTP/NCI, 2004)
“And” between values parts separate entries of the source, which are not always exact repeats. Identical values can stand only once. Toxic doses and inconclusive results are not listed.

Tested on: P388 leukemia ip, CD2F1 mice, survival T/C
Assay: NCI In Vivo Anticancer Drug Screen. Data for tumor model P388 Leukemia (intraperitoneal) in CD2F1 (CDF1) mice
Conditions: endpoint: median survival time, higher = longer survival
Outline: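 Mice carrying the transplanted tumor received test compound or vehicle. Survival was recorded in each group, and the value is the treated-group measurement divided by that of the vehicle-treated control group.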

[1] = dose: 25.0 mg/kg/injection, schedule: Q01DX009 (ip), vehicle: saline with Tween-80
[2] = dose: 50.0 mg/kg/injection, schedule: Q01DX009 (ip), vehicle: saline with Tween-80
[3] = dose: 50.0 mg/kg/injection, schedule: Q01DX009 (ip), vehicle: Klucel (hydroxypropylcellulose) (HPC)
[4] = dose: 100.0 mg/kg/injection, schedule: Q01DX009 (ip), vehicle: Klucel (hydroxypropylcellulose) (HPC)
[5] = dose: 100.0 mg/kg/injection, schedule: Q01DX009 (ip), vehicle: saline with Tween-80
[6] = dose: 200.0 mg/kg/injection, schedule: Q01DX009 (ip), vehicle: saline with Tween-80
[7] = dose: 400.0 mg/kg/injection, schedule: Q01DX009 (ip), vehicle: saline with Tween-80
[8] = dose: 60.0 mg/kg/injection, schedule: Q01DX005 (ip), vehicle: saline with Tween-80
[9] = dose: 120.0 mg/kg/injection, schedule: Q01DX005 (ip), vehicle: saline with Tween-80
[10] = dose: 240.0 mg/kg/injection, schedule: Q01DX005 (ip), vehicle: saline with Tween-80
[11] = dose: 100.0 mg/kg/injection, schedule: Q04DX003 (ip), vehicle: saline with Tween-80
[12] = dose: 200.0 mg/kg/injection, schedule: Q04DX003 (ip), vehicle: saline with Tween-80
[13] = dose: 400.0 mg/kg/injection, schedule: Q04DX003 (ip), vehicle: saline with Tween-80
[14] = dose: 50.0 mg/kg/injection, schedule: Q01DX005 (ip), vehicle: saline
[15] = dose: 100.0 mg/kg/injection, schedule: Q01DX005 (ip), vehicle: saline
[16] = dose: 200.0 mg/kg/injection, schedule: Q01DX005 (ip), vehicle: saline

Question: With CN(C)C1CCC(NC2=CC(=O)C=CC2=O)CC1 (stereo not drawn) as the compound, how does the T/C (dose: 0.78 mg/kg/injection, schedule: Q01DX005 (ip), vehicle: saline) read?
Answer: 101 % of control

Question: What about the T/C (dose: 1.56 mg/kg/injection, schedule: Q01DX005 (ip), vehicle: saline) of the same compound?
Answer: 97 % of control

Question: And the T/C (dose: 3.12 mg/kg/injection, schedule: Q01DX005 (ip), vehicle: saline)?
Answer: 97 % of control

Question: With CC(NCCCSc1ccccc1)C(O)c1ccc(O)cc1 (stereo not drawn) as the compound, how does the T/C [1] read?
Answer: 94 % of control

Question: What about the T/C [2] of the same compound?
Answer: 100 % of control

Question: CSC(C=P(c1ccccc1)(c1ccccc1)c1ccccc1)=Nc1ccccc1 was tested. Which T/C (dose: 6.25 mg/kg/injection, schedule: Q01DX009 (ip), vehicle: saline with Tween-80) did it give?
Answer: 101 % of control

Question: And the T/C (dose: 12.5 mg/kg/injection, schedule: Q01DX009 (ip), vehicle: saline with Tween-80)?
Answer: 101 % of control

Question: And the T/C [1]?
Answer: 102 % of control and 103 % of control

Question: How did the T/C (dose: 3.12 mg/kg/injection, schedule: Q01DX001 (ip), vehicle: Klucel (hydroxypropylcellulose) (HPC)) turn out when CC([NH-])C(C)[NH-].[Cl][Pt+2][Cl] (stereo not drawn) was run?
Answer: 119 % of control

Question: And the T/C (dose: 12.5 mg/kg/injection, schedule: Q01DX001 (ip), vehicle: Klucel (hydroxypropylcellulose) (HPC))?
Answer: 153 % of control and 154 % of control

Question: And the T/C (dose: 25.0 mg/kg/injection, schedule: Q01DX001 (ip), vehicle: Klucel (hydroxypropylcellulose) (HPC))?
Answer: 184 % of control

Question: Which results are given for O=C1CC2(CCCC2)CC(=O)N1c1ccc(O)c(CN2CCOCC2)c1?
Answer: T/C (dose: 100.0 mg/kg/injection, schedule: Q04DX002 (ip), vehicle: Klucel (hydroxypropylcellulose) (HPC)): 97 % of control; T/C (dose: 200.0 mg/kg/injection, schedule: Q04DX002 (ip), vehicle: Klucel (hydroxypropylcellulose) (HPC)): 89 % of control; T/C (dose: 400.0 mg/kg/injection, schedule: Q04DX002 (ip), vehicle: Klucel (hydroxypropylcellulose) (HPC)): 90 % of control

Question: How did the T/C [3] turn out when CC(/C=C/c1ccccc1)=N\Nc1ccc(Cl)cc1Cl was run?
Answer: 118 % of control

Question: And the T/C [4]?
Answer: 100 % of control

Question: What does the source list for Brc1cc2cccnc2c2ccccc12?
Answer: T/C (dose: 100.0 mg/kg/injection, schedule: Q01DX001 (ip), vehicle: Klucel (hydroxypropylcellulose) (HPC)): 98 % of control; T/C (dose: 200.0 mg/kg/injection, schedule: Q01DX001 (ip), vehicle: Klucel (hydroxypropylcellulose) (HPC)): 94 % of control; T/C (dose: 400.0 mg/kg/injection, schedule: Q01DX001 (ip), vehicle: Klucel (hydroxypropylcellulose) (HPC)): 97 % of control

Question: What does the source list for COc1ccc(C(=O)O)cc1?
Answer: T/C [5]: 101 % of control; T/C [6]: 96 % of control; T/C [7]: 109 % of control

Question: With Cc1ccc(C(=O)CSC2=NCCN2)cc1Cl as the compound, how does the T/C [8] read?
Answer: 106 % of control

Question: What about the T/C [9] of the same compound?
Answer: 100 % of control

Question: What about the T/C [10] of the same compound?
Answer: 97 % of control

Question: What does the source list for Cc1ccc(S(=O)(=O)S(=O)(=O)c2ccc(C)cc2)cc1?
Answer: T/C (dose: 100.0 mg/kg/injection, schedule: Q04DX002 (ip), vehicle: saline with Tween-80): 96 % of control; T/C (dose: 200.0 mg/kg/injection, schedule: Q04DX002 (ip), vehicle: saline with Tween-80): 99 % of control; T/C (dose: 400.0 mg/kg/injection, schedule: Q04DX002 (ip), vehicle: saline with Tween-80): 104 % of control

Question: What does the source list for CSc1c2c([nH]c(=O)c1C#N)-c1ccccc1CC2?
Answer: T/C (dose: 30.0 mg/kg/injection, schedule: Q01DX005 (ip), vehicle: saline with Tween-80): 89 % of control; T/C [8]: 91 % of control; T/C [9]: 95 % of control and 96 % of control; T/C [10]: 88 % of control

Question: Cc1c(S)cnc2ccccc12 was tested. Which T/C (dose: 50.0 mg/kg/injection, schedule: Q01DX005 (ip), vehicle: saline with Tween-80) did it give?
Answer: 99 % of control

Question: And the T/C (dose: 100.0 mg/kg/injection, schedule: Q01DX005 (ip), vehicle: saline with Tween-80)?
Answer: 93 % of control

Question: For Cc1cccnc1NC1OC(=O)c2ccccc21 (stereo not drawn), which T/C [2] is on record?
Answer: 100 % of control

Question: What about the T/C [5] of the same compound?
Answer: 96 % of control

Question: What does the source list for c1ccc(Cc2ccccc2)cc1?
Answer: T/C [2]: 105 % of control; T/C [5]: 110 % of control; T/C [6]: 109 % of control

Question: For COC(=O)C1(C)CCC=CC1Sc1ccccc1 (stereo not drawn), which T/C (dose: 100.0 mg/kg/injection, schedule: Q04DX003 (ip), vehicle: Klucel (hydroxypropylcellulose) (HPC)) is on record?
Answer: 100 % of control

Question: And the T/C (dose: 200.0 mg/kg/injection, schedule: Q04DX003 (ip), vehicle: Klucel (hydroxypropylcellulose) (HPC))?
Answer: 105 % of control

Question: What about the T/C (dose: 400.0 mg/kg/injection, schedule: Q04DX003 (ip), vehicle: Klucel (hydroxypropylcellulose) (HPC)) of the same compound?
Answer: 99 % of control

Question: What does the source list for O=Cc1c[nH]c2ccc(NC(=O)OCc3ccccc3)cc12?
Answer: T/C [2]: 103 % of control; T/C [5]: 89 % of control; T/C [7]: 86 % of control

Question: With CN(C)c1ccc(/C=N/O)cc1 as the compound, how does the T/C (dose: 12.5 mg/kg/injection, schedule: Q01DX009 (ip), vehicle: Klucel (hydroxypropylcellulose) (HPC)) read?
Answer: 86 % of control

Question: And the T/C (dose: 25.0 mg/kg/injection, schedule: Q01DX009 (ip), vehicle: Klucel (hydroxypropylcellulose) (HPC))?
Answer: 101 % of control and 103 % of control and 110 % of control

Question: What about the T/C [3] of the same compound?
Answer: 103 % of control and 113 % of control

Question: What about the T/C [4] of the same compound?
Answer: 104 % of control and 113 % of control

Question: What about the T/C (dose: 200.0 mg/kg/injection, schedule: Q01DX009 (ip), vehicle: Klucel (hydroxypropylcellulose) (HPC)) of the same compound?
Answer: 96 % of control

Question: How did the T/C (dose: 0.78 mg/kg/injection, schedule: Q01DX009 (ip), vehicle: saline with Tween-80) turn out when CCC1(O)CC(OC2CC(N(C)C)C(OC3CC(O)C(OC4CCC(=O)C(C)O4)C(C)O3)C(C)O2)c2c(cc3c(c2O)C(=O)c2c(O)ccc(O)c2C3=O)C1C(=O)OC (stereo not drawn) was run?
Answer: 178 % of control

Question: And the T/C (dose: 1:4.0 dilution, schedule: Q01DX009 (ip), vehicle: saline)?
Answer: 241 % of control

Question: What about the T/C (dose: 1:8.0 dilution, schedule: Q01DX009 (ip), vehicle: saline) of the same compound?
Answer: 190 % of control

Question: What does the source list for [Br][Pt+2][Br].[NH-]C1CCCC1[NH-] (stereo not drawn)?
Answer: T/C (dose: 12.5 mg/kg/injection, schedule: Q04DX002 (ip), vehicle: saline with Tween-80): 164 % of control; T/C (dose: 25.0 mg/kg/injection, schedule: Q04DX002 (ip), vehicle: saline with Tween-80): 197 % of control and 174 % of control; T/C (dose: 50.0 mg/kg/injection, schedule: Q04DX002 (ip), vehicle: saline with Tween-80): 93 % of control and 212 % of control

Question: How did the T/C [8] turn out when COC(=O)c1cccc2c(N)c(N)cc(C(=O)OC)c12 was run?
Answer: 100 % of control

Question: And the T/C [9]?
Answer: 104 % of control

Question: And the T/C [10]?
Answer: 106 % of control

Question: With O=C1CN(CCN2CC(=O)N(CN3CCOCC3)C(=O)C2)CC(=O)N1CN1CCOCC1 as the compound, how does the T/C (dose: 12.5 mg/kg/injection, schedule: Q01DX005 (ip), vehicle: water) read?
Answer: 108 % of control and 111 % of control and 119 % of control

Question: How did the T/C (dose: 12.5 mg/kg/injection, schedule: Q01DX009 (ip), vehicle: water) turn out when COC(=O)C1OC(SC(=N)N)C(OC(C)=O)C(OC(C)=O)C1OC(C)=O (stereo not drawn) was run?
Answer: 101 % of control

Question: What about the T/C (dose: 25.0 mg/kg/injection, schedule: Q01DX009 (ip), vehicle: water) of the same compound?
Answer: 109 % of control

Question: What about the T/C (dose: 50.0 mg/kg/injection, schedule: Q01DX009 (ip), vehicle: water) of the same compound?
Answer: 107 % of control and 117 % of control

Question: Which results are given for COc1ccc(CSCc2c(CSCc3ccc(OC)c(OC)c3)c(CSCc3ccc(OC)c(OC)c3)c(CSCc3ccc(OC)c(OC)c3)c(CSCc3ccc(OC)c(OC)c3)c2CSCc2ccc(OC)c(OC)c2)cc1OC?
Answer: T/C [11]: 96 % of control; T/C [12]: 90 % of control; T/C [13]: 102 % of control

Question: Which results are given for CC(C)SC(=O)C[Si](C)(C)C?
Answer: T/C (dose: 50.0 mg/kg/injection, schedule: Q04DX003 (ip), vehicle: saline with Tween-80): 98 % of control and 101 % of control; T/C [11]: 101 % of control and 104 % of control; T/C [12]: 103 % of control and 105 % of control; T/C [13]: 98 % of control

Question: With Clc1nn2ccnc2c2cccnc12 as the compound, how does the T/C (dose: 12.5 mg/kg/injection, schedule: Q04DX003 (ip), vehicle: Klucel (hydroxypropylcellulose) (HPC)) read?
Answer: 100 % of control

Question: What about the T/C (dose: 25.0 mg/kg/injection, schedule: Q04DX003 (ip), vehicle: Klucel (hydroxypropylcellulose) (HPC)) of the same compound?
Answer: 103 % of control

Question: Which T/C (dose: 100.0 mg/kg/injection, schedule: Q04DX002 (ip), vehicle: saline) does the source give for CCCS(=O)(=O)CCC(=O)c1cccs1 here?
Answer: 104 % of control

Question: And the T/C (dose: 200.0 mg/kg/injection, schedule: Q04DX002 (ip), vehicle: saline)?
Answer: 100 % of control

Question: What about the T/C (dose: 400.0 mg/kg/injection, schedule: Q04DX002 (ip), vehicle: saline) of the same compound?
Answer: 101 % of control

Question: O=C(O)COc1cccc2c(=O)cc(-c3ccccc3)oc12 was tested. Which T/C [14] did it give?
Answer: 102 % of control

Question: What about the T/C [15] of the same compound?
Answer: 101 % of control

Question: What about the T/C [16] of the same compound?
Answer: 99 % of control

Question: O=C1NC(=O)C2(O)NC(=O)NC2(O)N1 (stereo not drawn) was tested. Which T/C (dose: 25.0 mg/kg/injection, schedule: Q01DX005 (ip), vehicle: saline) did it give?
Answer: 100 % of control

Question: And the T/C [14]?
Answer: 106 % of control

Question: What about the T/C [15] of the same compound?
Answer: 101 % of control

Question: What about the T/C [16] of the same compound?
Answer: 116 % of control

Question: What about the T/C (dose: 400.0 mg/kg/injection, schedule: Q01DX005 (ip), vehicle: saline) of the same compound?
Answer: 116 % of control
